Reference: BindingDB's records for doi:10.1021/cb900134c (Saic-Frederick, 2009)

Molecular target: T1, Broad substrate specificity ATP-binding cassette transporter ABCG2 (Homo sapiens, UniProt Q9UNQ0)
T1 sequence (Q9UNQ0 whole entry): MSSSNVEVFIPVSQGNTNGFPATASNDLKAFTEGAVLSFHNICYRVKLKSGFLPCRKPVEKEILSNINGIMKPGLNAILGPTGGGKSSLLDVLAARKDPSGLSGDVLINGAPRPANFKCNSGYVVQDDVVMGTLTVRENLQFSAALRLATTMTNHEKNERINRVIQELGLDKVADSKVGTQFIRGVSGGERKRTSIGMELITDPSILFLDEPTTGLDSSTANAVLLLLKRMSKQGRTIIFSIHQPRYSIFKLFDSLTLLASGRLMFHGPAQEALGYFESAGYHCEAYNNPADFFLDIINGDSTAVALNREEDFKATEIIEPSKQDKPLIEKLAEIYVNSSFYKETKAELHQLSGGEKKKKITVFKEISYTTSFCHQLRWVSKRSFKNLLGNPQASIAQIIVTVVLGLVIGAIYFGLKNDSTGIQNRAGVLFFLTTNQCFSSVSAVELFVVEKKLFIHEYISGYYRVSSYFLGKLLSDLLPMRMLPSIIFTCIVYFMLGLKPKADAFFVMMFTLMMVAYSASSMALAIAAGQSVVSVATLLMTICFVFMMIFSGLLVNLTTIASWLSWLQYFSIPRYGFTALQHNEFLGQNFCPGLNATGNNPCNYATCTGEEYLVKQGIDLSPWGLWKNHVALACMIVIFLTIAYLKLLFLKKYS
Test: Screening Assay for ABCG2 Inhibitors
Settings: pH 7.4; 37 °C
Experimental: IC50 and maximal activities for inhibition of PhA accumulation were determined from dose-response curves. The accumulation of PhA, a fluorescent ABCG2 substrate, formed the basis of the assay for inhibitors of ABCG2 activity. NCI-H460/MX20 cells were transferred to black-walled, clear-bottomed 384-well polylysine-coated assay plates (Corning) and allowed to attach for several hours. PhA was added, immediately followed by compounds or vehicle (DMSO/PBS) control and incubated for an additional 18 h. After removal of medium and washing with PBS containing Ca2+ and Mg2+, fluorescence intensity was read on a Tecan Safire fluorescence plate reader in bottom read mode (395 nm excitation, 670 nm emission). Each plate had control wells containing Fumitremorgin C (FTC). Data were normalized to FTC and reported as the percentage of FTC fluorescence. Apparent IC50 values were calculated from dose-response data using SigmaPlot (SPSS, Inc., Chicago) 4-parameter logistic nonlinear regression analysis.

Compound | IC50
CO/C(=C\c1ccc(O)cc1)C(=O)N/C=C/c1cc(Br)c(O)c(Br)c1 [US8470888, Botryllamide G] | 6.9 µM
CO/C(=C/c1ccc(O)cc1)C(=O)N/C=C/c1cc(Br)c(OC)c(Br)c1 [Botryllamide B, 2] | 11.2 µM
CO/C(=C/c1ccc(O)cc1)C(=O)N/C=C/c1ccc(OC)c(Br)c1 [Botryllamide D, 4] | 16.4 µM
CO/C(=C\c1ccc(O)cc1)C(=O)N/C=C/c1ccc(OC)cc1 [US8470888, Botryllamide I] | 23.3 µM
CO/C(=C\c1ccc(O)cc1)C(=O)N/C=C/c1ccc(O)cc1 [US8470888, Botryllamide F] | 16.7 µM
COc1ccc2c3c([nH]c2c1)[C@H](C=C(C)C)N1C(=O)[C@@H]2CCCN2C(=O)[C@@H]1C3 [Fumitremorgin C] | 0.79 µM
CO/C(=C\c1ccc(O)cc1)C(=O)N/C=C/c1cc(Br)c(OC)c(Br)c1 [US8470888, Botryllamide A] | 33.4 µM
CO/C(=C/c1ccc(O)cc1)C(=O)N/C=C/c1ccc(OC)cc1 [Botryllamide I, 9] | 41.4 µM
